Assay results reported in patent US8530636B2, “Method for regulating protein function in cells in vivo using synthetic small molecules” (priority 2008, dated 2013).
Like-named read-outs stand apart in the source and are kept apart here.

Test system: HCT116 tumors

1-[2-(3,4,5-trimethoxy-phenyl)-butyryl]-piperazine-2-carboxylic acid 3-(3,4-dimethoxy-phenyl)-1-[3-(2-morpholin-4-yl-ethoxy)-phenyl]-propyl ester [Shield1]
Virus in the tumor (viral luciferase expression) (Shield1 delayed until 3 days following virus): equivalent to those observed in animals treated with virus alone | Virus in the tumor (viral luciferase expression) (Shield1 started prior to virus delivery): only modest levels of virus | Adverse physiological effects (mouse, in vivo): no adverse physiological effects observed | Tumor burden compared to virus alone (mouse, in vivo): significantly decreased tumor burden | Tumor responses (mouse, in vivo): Seven of the eight animals demonstrated complete and durable responses | Tumor burden, Shield1 alone (no virus): no effect on tumor burden
